Experimental data as given in US5827876A, “Inhibition of bone loss by 3-(4-acrylamidobenzoyl) benzo[b]-thiophenes” (priority 1997, dated 1998).
Like-named read-outs stand apart in the source and are kept apart here.

Key:
Ishikawa cells = test: Ishikawa Cell Alkaline Phosphatase Assay; type: cell-based; settings: Homo sapiens, reference compounds, estrogenic activity, 48 h treatment, 95% C.I. given in parentheses, read-out: ED50 values (95% C.I.), alkaline phosphatase activity
Procedure: Ishikawa Cell Alkaline Phosphatase Assay
Cell maintenance and treatment:
Ishikawa cells are maintained in DMEM/F12 (50%:50%) containing phenol red+10% fetal bovine serum. The medium also is supplemented with 2 mM Glutamax, 1% Pen/Strep and 1 mM sodium pyruvate. Five days prior to the beginning of an experiment (treatment of cells) the medium is changed to phenol red-free DMEM/F12+10% dextran coated charcoal stripped serum. On the day before treatment, cells are harvested using 0.5% trypsin/EDTA and plated at a density of 5×10^4 cells/well in 96-well tissue culture plates. […] Cells are treated for 48 hours prior to assay. […] Sample size for each compound dose is n=8.
Alkaline Phosphatase assay:
At the end of 48 hours the media is aspirated and cells are washed three times with phosphate buffered saline (PBS). 50 μl of lysis buffer (0.1M Tris-HCl, pH 9.8, 0.2% Triton X-100) is added to each well. Plates are placed at -80° C. for minimally 15 minutes. Plates are rapidly thawed at 37° C. followed by the addition of 150 μl of 0.1M Tris-HCl, pH 9.8, containing 4 mM para-nitrophenylphosphate to each well (final concentration is 3 mM pNPP).
Absorbance and slope calculations are done using the KineticCalc Application program (Bio-Tek Instruments, Inc., Winooski, Vt.). Results are expressed as the mean ±S.D. of the rate of enzyme reaction (slope) averaged over the linear portion of the kinetic reaction curve (optical density readings every 5 minutes for 30 minutes absorbance reading).

estrogen receptor = biological target: T1, estrogen receptor (Homo sapiens, UniProt P03372); test: Estrogen Receptor Binding/Competition Assay ([3H]17β-estradiol displacement, CHO cytosol)
T1 sequence (P03372 1-595): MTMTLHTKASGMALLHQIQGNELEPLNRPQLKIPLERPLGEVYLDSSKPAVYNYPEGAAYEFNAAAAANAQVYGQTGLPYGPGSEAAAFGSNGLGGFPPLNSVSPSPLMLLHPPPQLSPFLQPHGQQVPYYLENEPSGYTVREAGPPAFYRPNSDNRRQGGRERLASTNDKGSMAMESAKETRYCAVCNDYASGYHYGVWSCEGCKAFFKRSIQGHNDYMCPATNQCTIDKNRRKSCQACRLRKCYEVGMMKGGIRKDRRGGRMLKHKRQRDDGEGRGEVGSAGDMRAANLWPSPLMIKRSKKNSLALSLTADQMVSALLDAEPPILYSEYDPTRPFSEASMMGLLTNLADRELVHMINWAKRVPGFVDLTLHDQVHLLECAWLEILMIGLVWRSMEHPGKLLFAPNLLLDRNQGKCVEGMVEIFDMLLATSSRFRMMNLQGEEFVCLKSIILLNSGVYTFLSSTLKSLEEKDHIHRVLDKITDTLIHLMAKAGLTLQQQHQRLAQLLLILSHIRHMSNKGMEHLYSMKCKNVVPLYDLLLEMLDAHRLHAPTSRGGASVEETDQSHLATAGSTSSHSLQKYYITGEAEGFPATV

ovariectomized rats = settings: cited from earlier work
[1] = background statement, cited from earlier work
[2] = ovariectomized rats, Black et al. 1994

| EC50 (Ishikawa cells) [nM] | IC50 (estrogen receptor) [nM] | Compound | other results |
| --- | --- | --- | --- |
| 1.42 |  | C[C@]12CC[C@@H]3c4ccc(O)cc4CC[C@H]3[C@@H]1CC[C@H]2O [17α-estradiol] |  |
| 0.03 |  | C[C@]12CC[C@@H]3c4ccc(O)cc4CC[C@H]3[C@@H]1CC[C@@H]2O [17β-estradiol] |  |
|  | 150 | CN(C)C(=O)/C=C/c1ccc(C(=O)c2c(-c3ccc(O)cc3)sc3cc(O)ccc23)cc1 [Example 3, (E)-3-{4-[6-Hydroxy-2-(4-hydroxyphenyl)benzo[b]thiophene-3-carbonyl]phenyl}-N,N-dimethylacrylamide] |  |
|  | 100 | CC(C)(C)NC(=O)/C=C/c1ccc(C(=O)c2c(-c3ccc(O)cc3)sc3cc(O)ccc23)cc1 [Example 4, (E)-N-t-Butyl-3-{4-[6-hydroxy-2-(4-hydroxyphenyl)benzo[b]thiophene-3-carbonyl]phenyl}acrylamide] |  |
|  | 100 | CCN(CC)C(=O)/C=C/c1ccc(C(=O)c2c(-c3ccc(O)cc3)sc3cc(O)ccc23)cc1 [Example 5, (E)-N,N-Diethyl-3-{4-[6-hydroxy-2-(4-hydroxyphenyl)benzo[b]thiophene-3-carbonyl]phenyl}acrylamide] |  |
|  | 170 | O=C(c1ccc(/C=C/C(=O)N2CCOCC2)cc1)c1c(-c2ccc(O)cc2)sc2cc(O)ccc12 [Example 6, (E)-3-{4-[6-Hydroxy-2-(4 hydroxyphenyl)benzo[b]thiophene-3-carbonyl]-phenyl}-1-(morpholin-4-yl)prop-2-en-1-one] |  |
|  | 70 | O=C(c1ccc(/C=C/C(=O)N2CCCCC2)cc1)c1c(-c2ccc(O)cc2)sc2cc(O)ccc12 [Example 7, (E)-3-{4-[6-Hydroxy-2-(4-hydroxyphenyl)benzo[b]thiophene-3-carbonyl]phenyl}-1-(piperidinyl)prop-en-1-one] |  |
| 0.13 |  | C[C@]12CC[C@@H]3c4ccc(O)cc4CC[C@H]3[C@@H]1C[C@@H](O)[C@@H]2O [estriol] |  |
| 0.36 |  | C[C@]12CC[C@@H]3c4ccc(O)cc4CC[C@H]3[C@@H]1CCC2=O [estrone] |  |
|  |  | O=C(c1ccc(OCCN2CCCCC2)cc1)c1c(-c2ccc(O)cc2)sc2cc(O)ccc12 [raloxifene] | effect on bone loss (ovariectomized rats; [2]): prevents bone loss; effect on serum cholesterol (ovariectomized rats; [2]): reduces serum cholesterol; uterine hypertrophy (ovariectomized rats; [2]): without causing uterine hypertrophy; effect on bone loss (ovariectomized rats; species not given): reduce bone loss; uterine hypertrophy (ovariectomized rats; species not given): without causing uterine hypertrophy |
|  |  | [F-].[Na+] [sodium fluoride] | bone growth quality [1]: the bone growth is irregular; fracture incidence [1]: fracture incidence does not appear to be significantly lowered; side-effects [1]: significant side-effects; bone density increase ([1]; up to the value): 8-10 % a year |
